Experimental data: patent US8642585B2, “Indanyloxydihydrobenzofuranylacetic acids” (Boehringer Ingelheim International GmbH, priority 2012, dated 2014)

Molecular target: human GPR40 receptor (Homo sapiens, UniProt O14842)
Assay: Assay I: IP1 accumulation (IPOne HTRF) in 1321N1 cells stably expressing human GPR40
Type: cell-based
Details: 1321N1 cells expressing human GPR40, stimulation 1 hour at 37° C., 10% CO2, final LiCl 50 mM
Procedure: IP1 accumulation measurements using the IPOne assay system—1321N1 cells stably expressing human GPR40 receptor (Euroscreen, Belgium) are seeded 24 h before the assay in black clear-bottom collagen-coated 384-well plates in culture medium containing 10% FCS, 1% Na-Pyruvate and 400 μg/mL G418. IP1 is assayed according to the Manufacturers description (Cisbio Bioassays, France). In brief, the assay is started by substitution of the culture medium by stimulation buffer (Hepes 10 mM, CaCl2 1 mM, MgCl2 0.5 mM, KCl 4.2 mM, NaCl 146 mM and glucose 5.5 mM, pH 7.4) without LiCl. Cells are stimulated for 1 hour at 37° C., 10% CO2 by addition of the compounds that are diluted in stimulation buffer containing LiCl yielding a final LiCl concentration of 50 mM. Assays are stopped by adding HTRF-conjugates (IP1-d2 and Anti-IP1 cryptate Tb) and lysis buffer, provided by the manufacturer. After an incubation time of 1 hour at room temperature plates are measured using an EnVision™, Perkin Elmer. The obtained fluorescence ratios at 665/615 nM are then used to calculate the pEC50 values using GraphPad Prism 5 (Graphpad Software Inc, USA) by interpolation using an IP1 reference curve and subsequent sigmoidal curve fitting allowing for a variable hill slope.

Chain of human GPR40 receptor (O14842 whole entry): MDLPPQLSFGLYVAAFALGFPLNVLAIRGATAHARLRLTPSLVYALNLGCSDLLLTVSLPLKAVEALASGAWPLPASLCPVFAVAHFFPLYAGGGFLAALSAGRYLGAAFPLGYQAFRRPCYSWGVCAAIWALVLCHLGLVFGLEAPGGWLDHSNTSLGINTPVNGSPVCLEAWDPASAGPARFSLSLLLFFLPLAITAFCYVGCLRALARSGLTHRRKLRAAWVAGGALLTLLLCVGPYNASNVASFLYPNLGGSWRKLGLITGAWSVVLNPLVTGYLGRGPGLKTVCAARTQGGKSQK

Point of comparison: `Cc1cc(OCCNC(=O)OC(C)(C)C)cc(C)c1-c1ccc(F)c2c1CC[C@H]2Oc1ccc2c(c1)OC[C@H]2CC(=O)O` [Example 65, 2-((S)-6-((R)-4-(4-(2-(tert-Butoxycarbonylamino)ethoxy)-2,6-dimethylphenyl)-7-fluoro-2,3-dihydro-1H-inden-1-yloxy)-2,3-dihydrobenzofuran-3-yl)acetic acid], EC50 34 nM. Against it:
- Cc1cc(C(=O)N2CCOCC2)cc(C)c1-c1ccc(F)c2c1CC[C@H]2Oc1ccc2c(c1)OC[C@H]2CC(=O)O [Example 63, 2-((S)-6-((R)-4-(2,6-Dimethyl-4-(morpholine-4-carbonyl)phenyl)-7-fluoro-2,3-dihydro-1H-inden-1-yloxy)-2,3-dihydrobenzofuran-3-yl)acetic acid] — within 1.5-fold, 38 nM
- COc1cc(COc2cc(C)c(-c3ccc(F)c4c3CC[C@H]4Oc3ccc4c(c3)OC[C@H]4CC(=O)O)c(C)c2)ccn1 [Example 147, 2-((S)-6-((R)-7-fluoro-4-(4-((2-methoxypyridin-4-yl)methoxy)-2,6-dimethylphenyl)-2,3-dihydro-1H-inden-1-yloxy)-2,3-dihydrobenzofuran-3-yl)acetic acid] — 17-fold lower, 2 nM
- Cc1cc(OCc2ccnn2C)cc(C)c1-c1ccc(F)c2c1CC[C@H]2Oc1ccc2c(c1)OC[C@H]2CC(=O)O [Example 151, 2-((S)-6-((R)-4-(2,6-dimethyl-4-((1-methyl-1H-pyrazol-5-yl)methoxy)phenyl)-7-fluoro-2,3-dihydro-1H-inden-1-yloxy)-2,3-dihydrobenzofuran-3-yl)acetic acid] — 11-fold lower, 3 nM
